Data: paper PMC11200585, “Prospects for Prostate Cancer Chemotherapy: Cytotoxic Evaluation and Mechanistic Insights of Quinolinequinones with ADME/PK Profile” (Biomedicines, 2024)

Assays:
Format in all cases: cell-based, human
TK-10 = test: NCI-60 five-dose assay (renal cancer); conditions: 48 h, SRB
NCI-H23 = test: NCI-60 five-dose assay (non-small cell lung cancer); conditions: 48 h, SRB
K-562 [1] = test: NCI-60 five-dose assay (leukemia); conditions: SRB
SW-620 = test: NCI-60 five-dose assay (colon cancer); conditions: 48 h, SRB
K-562 [2] = test: NCI-60 one-dose screen (leukemia); conditions: 10 µM single dose, 48 h
Procedure: (§1) The obtained quinolinequinones were submitted to NCI, Bethesda, USA, and, as per standard protocol of NCI, all compounds were evaluated for their antiproliferative activity at single-dose assay (10 µM concentration in DMSO) on a panel of 60 cancer cell lines derived from leukemia, non-small-cell lung, colon, CNS, melanoma, ovarian, renal, prostate, and breast, as per protocol. Tested compounds were added to the microtiter culture plates followed by incubation for 48 h at 37 °C. Sulforhodamine B (SRB), a protein-binding dye, is used for endpoint determination. The percent of the growth of the treated cells was determined in comparison to the untreated control cells and the results of each tested compound were reported. Data from one-dose experiments pertain to the percentage growth at 10 μM [16, 17, 18].

SR [3] = test: NCI-60 one-dose screen (leukemia); conditions: 10 µM single dose, 48 h
Procedure: as §1

RPMI-8226 = test: NCI-60 one-dose screen (leukemia); conditions: 10 µM single dose, 48 h
Procedure: as §1

MOLT-4 = test: NCI-60 one-dose screen (leukemia); conditions: 10 µM single dose, 48 h
Procedure: as §1

CCRF-CEM [4] = test: NCI-60 one-dose screen (leukemia); conditions: 10 µM single dose
Procedure: as §1

HL-60(TB) = test: NCI-60 one-dose screen (leukemia); conditions: 10 µM single dose, 48 h
Procedure: as §1

OVCAR-8 = test: NCI-60 five-dose assay (ovarian cancer); conditions: 48 h, SRB
SNB-19 = test: NCI-60 one-dose screen (CNS cancer); conditions: 10 µM single dose, 48 h
Procedure: as §1

SF-295 = test: NCI-60 one-dose screen (CNS cancer); conditions: 10 µM single dose, 48 h
Procedure: as §1

SF-268 = test: NCI-60 one-dose screen (CNS cancer); conditions: 10 µM single dose, 48 h
Procedure: as §1

U251 = test: NCI-60 one-dose screen (CNS cancer)
Procedure: as §1

SNB-75 = test: NCI-60 one-dose screen (CNS cancer); conditions: 10 µM single dose, 48 h
Procedure: as §1

SF-539 = test: NCI-60 one-dose screen (CNS cancer); conditions: 10 µM single dose, 48 h
Procedure: as §1

MDA-MB-468 [5] = test: NCI-60 five-dose assay (breast cancer); conditions: 48 h, SRB
BT-549 = test: NCI-60 one-dose screen (breast cancer); conditions: 10 µM single dose, 48 h
Procedure: as §1

T-47D [6] = test: NCI-60 one-dose screen (breast cancer); conditions: 10 µM single dose, 48 h
Procedure: as §1

MCF7 = test: NCI-60 one-dose screen (breast cancer); conditions: 10 µM single dose, 48 h
Procedure: as §1

HS 578T [7] = test: NCI-60 one-dose screen (breast cancer); conditions: 10 µM single dose, 48 h
Procedure: as §1

MDA-MB-468 [8] = test: NCI-60 one-dose screen (breast cancer); conditions: 10 µM single dose, 48 h
Procedure: as §1

MDA-MB-231/ATCC = test: NCI-60 one-dose screen (breast cancer); conditions: 10 µM single dose, 48 h
Procedure: as §1

DU-145 [9] = test: NCI-60 five-dose assay (prostate cancer); conditions: 48 h, SRB
T-47D [10] = test: NCI-60 five-dose assay (breast cancer); conditions: 48 h, SRB
CCRF-CEM [11] = test: NCI-60 five-dose assay (leukemia); conditions: 48 h, SRB
OVCAR-4 = test: NCI-60 five-dose assay (ovarian cancer); conditions: 48 h, SRB
SR [12] = test: NCI-60 five-dose assay (leukemia); conditions: 48 h, SRB
UACC-62 = test: NCI-60 five-dose assay (melanoma); conditions: 48 h, SRB
LOX IMVI = test: NCI-60 five-dose assay (melanoma); conditions: 48 h, SRB
NCI-H322M = test: NCI-60 five-dose assay (non-small cell lung cancer); conditions: 48 h, SRB
A498 = test: NCI-60 five-dose assay (renal cancer); conditions: 48 h, SRB
DU-145 [13] = test: NCI-60 one-dose screen (prostate cancer); conditions: 10 µM single dose, 48 h
Procedure: as §1

PC-3 = test: NCI-60 one-dose screen (prostate cancer); conditions: 10 µM single dose
Procedure: as §1

SK-MEL-5 = test: NCI-60 five-dose assay (melanoma); conditions: 48 h, SRB
OVCAR-5 = test: NCI-60 five-dose assay (ovarian cancer); conditions: 48 h, SRB
HS 578T [14] = test: NCI-60 five-dose assay (breast cancer); conditions: 48 h, SRB
[15] = Homo sapiens, read-out: LC50 (the source's name)

CCOc1ccc(NC2=C(Cl)C(=O)c3nc(C)ccc3C2=O)cc1 [AQQ3] was tested, and the TGI (TK-10) was 3.77 µM, the GI50 (TK-10; Homo sapiens) was 2.3 µM and the LC50 (concentration killing 50% of starting cells) (TK-10; Homo sapiens) was 6.18 µM. For the same compound, the TGI (NCI-H23) was 2.85 µM, the GI50 (NCI-H23; Homo sapiens) was 1.35 µM and the CC50 (NCI-H23; [15]) was 6.03 µM. The TGI (K-562 [1]; 48 h) was >100 µM, the GI50 (K-562 [1]; Homo sapiens, K562, 48 h) was 1.17 µM and the LC50 (K-562 [1]; Homo sapiens, K562, 48 h) was > 100 µM. It also gave a TGI (SW-620) of 3.51 µM, a GI50 (SW-620; Homo sapiens) of 1.83 µM and an LC50 (SW-620; Homo sapiens) of 6.73 µM. The “GP (growth percentage)” value (K-562 [2]) was −4.17%, the “GP (growth percentage)” value (SR [3]) was −27.42% and the “GP (growth percentage)” value (RPMI-8226) was −19.35%. For the same compound, the “GP (growth percentage)” value (MOLT-4) was −46.73%, the “GP (growth percentage)” value (CCRF-CEM [4]; 48 h) was 0.63% and the inhibition at 10 µM (CCRF-CEM [4]; Homo sapiens) was 99.4%. For the same compound, the “GP (growth percentage)” value (HL-60(TB)) was −46.39%, the TGI (OVCAR-8) was 3.01 µM and the GI50 (OVCAR-8; Homo sapiens) was 1.57 µM. For the same compound, the CC50 (OVCAR-8; [15]) was 5.77 µM, the “GP (growth percentage)” value (SNB-19) was 44.68% and the “GP (growth percentage)” value (SF-295) was 51.05%. The “GP (growth percentage)” value (SF-268) was 32.33%, the “GP (growth percentage)” value (U251; 10 µM single dose, 48 h) was 15.60% and the inhibition at 10 µM (U251; Homo sapiens, U-251, 10 µM single dose) was 84.4%. For the same compound, the “GP (growth percentage)” value (SNB-75) was 96.54%, the “GP (growth percentage)” value (SF-539) was −58.82% and the TGI (MDA-MB-468 [5]) was 2.92 µM. The GI50 (MDA-MB-468 [5]; Homo sapiens) was 1.49 µM, the LC50 (MDA-MB-468 [5]; Homo sapiens) was 5.75 µM and the “GP (growth percentage)” value (BT-549) was 46.48%. For the same compound, the “GP (growth percentage)” value (T-47D [6]) was −43.85%, the “GP (growth percentage)” value (MCF7) was −66.97% and the “GP (growth percentage)” value (HS 578T [7]) was 48.97%. For the same compound, the “GP (growth percentage)” value (MDA-MB-468 [8]) was −95.15%, the “GP (growth percentage)” value (MDA-MB-231/ATCC) was −71.74% and the TGI (DU-145 [9]) was 3.13 µM. The GI50 (DU-145 [9]; Homo sapiens) was 1.72 µM, the CC50 (DU-145 [9]; [15]) was 5.68 µM and the TGI (T-47D [10]) was 3.91 µM. For the same compound, the GI50 (T-47D [10]; Homo sapiens, T47D) was 1.01 µM, the CC50 (T-47D [10]; Homo sapiens, T47D, read-out: LC50 (the source's name)) was > 100 µM and the TGI (CCRF-CEM [11]) was >100 µM. The GI50 (CCRF-CEM [11]; Homo sapiens) was 2.11 µM, the LC50 (concentration killing 50% of cells) (CCRF-CEM [11]; Homo sapiens) was > 100 µM and the TGI (OVCAR-4) was 2.37 µM. The GI50 (OVCAR-4; Homo sapiens) was 1.13 µM, the LC50 (concentration killing 50% of cells) (OVCAR-4; Homo sapiens) was 4.97 µM and the TGI (SR [12]) was >100 µM. For the same compound, the GI50 (SR [12]; Homo sapiens) was 1.09 µM, the CC50 (SR [12]; [15]) was > 100 µM and the TGI (UACC-62) was 3.29 µM. The GI50 (UACC-62; Homo sapiens) was 1.81 µM, the LC50 (concentration killing 50% of cells) (UACC-62; Homo sapiens) was 5.97 µM and the TGI (LOX IMVI) was 2.33 µM. It also gave a GI50 (LOX IMVI; Homo sapiens) of 1.06 µM, an LC50 (concentration killing 50% of cells) (LOX IMVI; Homo sapiens) of 5.14 µM and a TGI (NCI-H322M) of 3.74 µM. The GI50 (NCI-H322M; Homo sapiens) was 1.68 µM, the CC50 (NCI-H322M; [15]) was 8.29 µM and the TGI (A498) was 5.52 µM. The GI50 (A498; Homo sapiens) was 1.56 µM, the LC50 (A498; Homo sapiens) was 24.4 µM and the “GP (growth percentage)” value (DU-145 [13]) was −92.73%. The “GP (growth percentage)” value (PC-3; 48 h) was 10.40%, the inhibition at 10 µM (PC-3; Homo sapiens) was 89.6% and the TGI (SK-MEL-5) was 3.11 µM. The GI50 (SK-MEL-5; Homo sapiens) was 1.72 µM, the CC50 (SK-MEL-5; [15]) was 5.62 µM and the TGI (OVCAR-5) was 3.46 µM. The GI50 (OVCAR-5; Homo sapiens) was 1.92 µM, the LC50 (lethal concentration 50%) (OVCAR-5; Homo sapiens) was 6.25 µM and the TGI (HS 578T [14]) was 5.82 µM. For the same compound, the GI50 (HS 578T [14]; Homo sapiens) was 2.22 µM and the CC50 (HS 578T [14]; [15]) was > 100 µM.
